Assay results from PubChem BioAssay (NCI).
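Following 48 hours of exposure in 96-well plates, responses at five concentrations were used to interpolate endpoints linearly. GI50 = concentration required for 50% inhibition of growth. TGI denotes the concentration required for complete inhibition of growth.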

What was measured:
Assay in all cases: inhibition of tumour cell growth, NCI panel, 48 h
[1] = test system: 786-0 renal
[2] = test system: A498 renal
[3] = test system: A549 NSCLC
[4] = test system: ACHN renal
[5] = test system: BT-549 breast
[6] = test system: CAKI-1 renal
[7] = test system: CCRF-CEM leukemia
[8] = test system: COLO 205 colon
[9] = test system: DU-145 prostate
[10] = test system: HCC-2998 colon
[11] = test system: HCT-116 colon
[12] = test system: HCT-15 colon
[13] = test system: HL-60(TB) leukemia
[14] = test system: HOP-62 NSCLC
[15] = test system: HOP-92 NSCLC
[16] = test system: HS 578T breast
[17] = test system: HT29 colon
[18] = test system: IGROV1 ovarian
[19] = test system: K-562 leukemia
[20] = test system: KM12 colon
[21] = test system: LOX IMVI melanoma
[22] = test system: M14 melanoma
[23] = test system: MALME-3M melanoma
[24] = test system: MCF7 breast
[25] = test system: MDA-MB-231 breast
[26] = test system: MDA-MB-435
[27] = test system: MOLT-4 leukemia
[28] = test system: NCI-H226 lung
[29] = test system: NCI-H23 lung
[30] = test system: NCI-H460 lung
[31] = test system: NCI-H522 lung
[32] = test system: NCI/ADR-RES ovarian
[33] = test system: OVCAR-3 ovarian
[34] = test system: OVCAR-4 ovarian
[35] = test system: OVCAR-5 ovarian
[36] = test system: OVCAR-8 ovarian
[37] = test system: PC-3 prostate
[38] = test system: RPMI-8226 leukemia
[39] = test system: RXF 393 renal
[40] = test system: SF-268 CNS
[41] = test system: SF-539 CNS
[42] = test system: SK-MEL-2 melanoma
[43] = test system: SK-MEL-28 melanoma
[44] = test system: SK-MEL-5 melanoma
[45] = test system: SK-OV-3 ovarian
[46] = test system: SN12C renal
[47] = test system: SNB-19 CNS
[48] = test system: SR leukemia
[49] = test system: SW-620 colon
[50] = test system: T-47D breast
[51] = test system: TK-10 renal
[52] = test system: U251 CNS
[53] = test system: UACC-257 melanoma
[54] = test system: UACC-62 melanoma
[55] = test system: UO-31 renal

`O=S(=O)(c1ccc(NC(=S)NC23CC4CC(CC(C4)C2)C3)cc1)N1CCCCC1` showed a GI50 [1] of 4.14 µM, a TGI [1] greater than 100 µM and a GI50 [2] of 2040 nM. For the same molecule, the TGI [2] was 7.79 µM, the GI50 [3] was 3.07 µM and the TGI [3] was greater than 100 µM. It also gave a GI50 [4] of 3.12 µM, a TGI [4] greater than 100 µM and a GI50 [5] of 3000 nM. The TGI [5] was 9.4 µM, the GI50 [6] was 3.06 µM and the TGI [6] was greater than 100 µM. For the same molecule, the GI50 [7] was 3.13 µM, the TGI [7] was greater than 100 µM and the GI50 [8] was 1820 nM. For the same molecule, the TGI [8] was 3.22 µM, the GI50 [9] was 4.09 µM and the TGI [9] was greater than 100 µM. The GI50 [10] was 3.29 µM, the TGI [10] was 19.9 µM and the GI50 [11] was 3.34 µM. It also gave a TGI [11] greater than 100 µM, a GI50 [12] of 3.22 µM and a TGI [12] greater than 100 µM. It also gave a GI50 [13] of 2650 nM, a TGI [13] of 6.24 µM and a GI50 [14] of 3.67 µM. The TGI [14] was greater than 100 µM, the GI50 [15] was 1630 nM and the TGI [15] was 5 µM. The GI50 [16] was 4.87 µM, the TGI [16] was greater than 100 µM and the GI50 [17] was 2490 nM. The TGI [17] was 5.84 µM, the GI50 [18] was 4.63 µM and the TGI [18] was greater than 100 µM. The GI50 [19] was 3.6 µM, the TGI [19] was greater than 100 µM and the GI50 [20] was 3.65 µM. It also gave a TGI [20] of 42.2 µM, a GI50 [21] of 3.71 µM and a TGI [21] greater than 100 µM. It also gave a GI50 [22] of 3.36 µM, a TGI [22] of 22.7 µM and a GI50 [23] of 2760 nM. For the same molecule, the TGI [23] was 8.3 µM, the GI50 [24] was 3.18 µM and the TGI [24] was greater than 100 µM. The GI50 [25] was 2410 nM, the TGI [25] was 5.6 µM and the GI50 [26] was 3.49 µM. For the same molecule, the TGI [26] was greater than 100 µM, the GI50 [27] was 3.24 µM and the TGI [27] was 11.4 µM. The GI50 [28] was 4.05 µM, the TGI [28] was greater than 100 µM and the GI50 [29] was 3.5 µM. For the same molecule, the TGI [29] was greater than 100 µM, the GI50 [30] was 3.35 µM and the TGI [30] was greater than 100 µM. It also gave a GI50 [31] of 2700 nM, a TGI [31] of 6.62 µM and a GI50 [32] of 3.46 µM. For the same molecule, the TGI [32] was greater than 100 µM, the GI50 [33] was 3.51 µM and the TGI [33] was 21.1 µM. The GI50 [34] was 4.01 µM, the TGI [34] was greater than 100 µM and the GI50 [35] was 3.53 µM. For the same molecule, the TGI [35] was greater than 100 µM, the GI50 [36] was 3.22 µM and the TGI [36] was greater than 100 µM. The GI50 [37] was 2550 nM, the TGI [37] was 8.94 µM and the GI50 [38] was 2150 nM. For the same molecule, the TGI [38] was 5.86 µM, the GI50 [39] was 2370 nM and the TGI [39] was 6.6 µM. The GI50 [40] was 4.12 µM, the TGI [40] was greater than 100 µM and the GI50 [41] was 4.19 µM. For the same molecule, the TGI [41] was greater than 100 µM, the GI50 [42] was 3.29 µM and the TGI [42] was 7.39 µM. The GI50 [43] was 5.23 µM, the TGI [43] was greater than 100 µM and the GI50 [44] was 1750 nM. For the same molecule, the TGI [44] was 3.31 µM, the GI50 [45] was 2980 nM and the TGI [45] was 9.26 µM. It also gave a GI50 [46] of 3.23 µM, a TGI [46] greater than 100 µM and a GI50 [47] of 4.02 µM. It also gave a TGI [47] greater than 100 µM, a GI50 [48] of 2690 nM and a TGI [48] greater than 100 µM. It also gave a GI50 [49] of 3.82 µM, a TGI [49] greater than 100 µM and a GI50 [50] of 3.28 µM. For the same molecule, the TGI [50] was greater than 100 µM, the GI50 [51] was 3.27 µM and the TGI [51] was 64.1 µM. The GI50 [52] was 2920 nM, the TGI [52] was 13.3 µM and the GI50 [53] was 2490 nM. It also gave a TGI [53] of 6.8 µM, a GI50 [54] of 3.22 µM and a TGI [54] greater than 100 µM. It also gave a GI50 [55] of 2820 nM and a TGI [55] greater than 100 µM.
